Experimental findings from ChEMBL document CHEMBL1147879, “Synthesis of soluble multivalent glycoconjugates that target the Hc region of botulinum neurotoxin A” (Bioorg Med Chem Lett, 2007) are described below.

Molecules are shown by their SMILES. Activity calls are given as the source filed them. No cut-off for these calls is given here.

This test has as its target Synaptosomal-associated protein 25 (Rattus norvegicus) (UniProt P60881). Description: Inhibition of BoNT/A-mediated SNAP25 cleavage in rat spinal card cells after 24 hrs by Western blot analysis. The class given is cell-based.

Sequence of Synaptosomal-associated protein 25 (Rattus norvegicus) (P60881 whole entry, looked up): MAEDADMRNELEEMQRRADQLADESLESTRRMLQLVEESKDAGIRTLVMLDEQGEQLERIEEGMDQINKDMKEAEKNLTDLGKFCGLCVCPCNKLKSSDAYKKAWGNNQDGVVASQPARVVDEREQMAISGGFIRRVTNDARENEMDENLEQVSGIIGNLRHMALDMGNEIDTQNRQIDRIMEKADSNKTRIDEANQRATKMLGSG

For `CC(=O)N[C@@H]1[C@@H]([C@@H](C)C(O)CCO)O[C@](SCC(=O)NCCOCCOCCOCCn2cc(CNC(=O)c3cc(NC(=O)CN)cc(C(=O)NCc4cn(CCOCCOCCOCCNC(=O)CS[C@]5(C(=O)O)C[C@H](O)[C@@H](NC(C)=O)[C@H]([C@H](C)C(O)CCO)O5)nn4)c3)nn2)(C(=O)O)C[C@H]1O` (some centres not stated), the result was Active.

In the case of `CC(=O)N[C@@H]1[C@@H]([C@@H](C)C(O)CCO)O[C@](SCC(=O)NCCOCCOCCOCCn2cc(CNC(=O)c3cc(NC(=O)CNC(=O)c4cc(NC(=O)CN)cc(C(=O)NCC(=N)Nc5cc(C(=O)NCc6cn(CCOCCOCCOCCNC(=O)CS[C@@]7(C(=O)O)C[C@@H](O)[C@H](NC(C)=O)[C@@H]([C@@H](C)C(O)CCO)O7)nn6)cc(C(=O)NCc6cn(CCOCCOCCOCCNC(=O)CS[C@@]7(C(=O)O)C[C@@H](O)[C@H](NC(C)=O)[C@@H]([C@@H](C)C(O)CCO)O7)nn6)c5)c4)cc(C(=O)NCc4cn(CCOCCOCCOCCNC(=O)CS[C@]5(C(=O)O)C[C@H](O)[C@@H](NC(C)=O)[C@H]([C@H](C)C(O)CCO)O5)nn4)c3)nn2)(C(=O)O)C[C@H]1O` (some centres not stated), the result was Active.
